This is an account of results in patent publication US20080183282A1, “Use of lipid conjugates for the coating of stents and catheters” (priority 2006, published 2008).

Molecules are shown by their SMILES.

In the assay the test system is Naja Naja Snake Venom PLA2 enzyme. The assay is described as follows: In vitro fluorometric PLA2 inhibition assay. It is filed as biochemical. Particulars: 0.1 mg/ml. The protocol:
The reaction of the PLA2 enzyme and the PLA2 enzyme substrate 2-(6-(7-nitrobenz-2-oxa-1,3diazol-4-yl)amino) hexanoyl-1-hexadecanoyl-sn-glycero-3-phosphocholine (NHGP) yields a product, which can be detected using a fluorometer. […] indicates inhibition of the PLA2 enzyme.
Compound XXII and Compound XXV were solubilized and diluted in D-PBS, and tested at final concentrations of […], 0.125, 0.25, 0.5 and 1 mg/ml. […] 1 mM NHGP was diluted in D-PBS, for a final concentration of 1 μM. The positive control, Mefenamic Acid (Sigma, M-4267), was tested at a final concentration of 0.1 mg/ml. The PLA2 enzyme is derived from the Naja Naja Snake Venom (Sigma, P6139) and tested at a final concentration of 5 Units/ml. The reaction was carried out in 200 μl solution and initiated by addition of substrate. Fluorescence was read immediately and then every minute for 30 minutes for a total of 30 readings. The fluorometer was set as follows: Excitation 450/50; Emission 530/25; Gain 50.

Take `Cc1cccc(Nc2ccccc2C(=O)O)c1C` [mefenamic acid, Mefenamic Acid]: the “inhibition of the PLA2 enzyme” value is on record as 41%.
